Results published in US10501421B1, “Substituted benzimidazoles as modulators of Ras signaling” (VANDERBILT UNIVERSITY, priority 2017, dated 2019).
Structures can show the parent of a compound that is named as a salt. Where two headings read alike, the source gives them in different places.

Tests used:
[1] = test system: H727 lung cancer cell lines (G12V K-Ras mutation); assay: Inhibition of cancer cell proliferation (CellTiter-Glo); type: cell-based; conditions: Homo sapiens, NCI-H727, 72 h, read-out: Cell proliferation activity (H727 cancer cell line proliferation IC50)
Protocol: Compounds of the present invention were measured for their ability to kill H727 lung cancer cell lines, which contain a G12V K-Ras mutation. Cell proliferation experiments were conducted in 96-well plates. Cells were plated at 1000 cells/well, incubated overnight, followed by treatment with a dose range of compound for 3 days at 37° C. Cell proliferation was assessed using a CellTiter-Glo assay (Promega) according to the manufacturer's protocol. Data were normalized to DMSO control. IC50 values were determined using a four-parameter dose-response (variable slope) equation. These assays are performed in a manner analogous to the assay disclosed in: Burns, M. C.; Sun, Q.; Daniels, R. N.; Camper, D. V.; Kennedy, J. P.; Phan, J.; Olejniczak, E. O.; Lee, T.; Waterson, A. G.; Rossanese, O. W.; Fesik, S. W. “Approach for targeting Ras with small molecules that activate SOS-mediated nucleotide exchange” Proc. Natl. Acad. Sci. 2014; 11(9): 3401-3406. PMCID: PMC3948241.

[2] = target: Ras GEF SOS (Son of Sevenless) (Homo sapiens, UniProt Q07889); assay: SOS-mediated nucleotide exchange on Ras (BODIPY-GDP fluorescence); type: biochemical; conditions: SOS-mediated exchange of BODIPY-GDP for GTP on Ras
Chain of Ras GEF SOS (Son of Sevenless) (P01112 1-166 partner limits assumed, one chain of several): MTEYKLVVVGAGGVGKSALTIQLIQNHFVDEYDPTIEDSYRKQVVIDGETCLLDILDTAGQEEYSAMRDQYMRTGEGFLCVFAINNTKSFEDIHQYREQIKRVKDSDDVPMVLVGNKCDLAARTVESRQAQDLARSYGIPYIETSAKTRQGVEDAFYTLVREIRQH
In short: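 Exchange rates were taken from single-exponential fits of the fluorescence time course as BODIPY-GDP on Ras was replaced by GTP. Compound went in first, then GTP and SOS. Mean rates plotted against concentration gave EC50 by four-parameter dose-response fitting.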

Son of Sevenless (SOS) = target: T1, Son of Sevenless (SOS) (Homo sapiens, UniProt Q07889); assay: Binding to SOS, fluorescence polarization anisotropy (FPA) probe displacement; conditions: displacement of FITC-conjugated probe (Example 285), affinity calculated from IC50
T1 sequence (Q07889 564-1049 limits assumed): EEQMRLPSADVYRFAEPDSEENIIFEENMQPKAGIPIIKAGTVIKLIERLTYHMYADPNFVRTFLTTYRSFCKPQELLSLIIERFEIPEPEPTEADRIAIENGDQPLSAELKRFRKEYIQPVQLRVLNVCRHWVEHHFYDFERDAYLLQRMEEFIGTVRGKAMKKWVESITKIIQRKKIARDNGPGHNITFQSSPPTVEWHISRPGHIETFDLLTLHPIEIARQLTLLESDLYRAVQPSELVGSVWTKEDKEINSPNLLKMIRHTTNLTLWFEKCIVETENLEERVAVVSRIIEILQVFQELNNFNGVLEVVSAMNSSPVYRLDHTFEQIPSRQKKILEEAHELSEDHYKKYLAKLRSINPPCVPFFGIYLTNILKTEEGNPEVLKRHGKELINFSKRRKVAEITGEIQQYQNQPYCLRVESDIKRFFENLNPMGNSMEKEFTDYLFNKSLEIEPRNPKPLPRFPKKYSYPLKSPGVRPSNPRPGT
In short: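 Test compounds were titrated against SOS pre-bound to a fluorescein-labelled probe, with anisotropy plotted versus compound concentration. Binding affinities were derived from IC50 values obtained by four-parameter dose-response fitting.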

[3] = H727 cells, 3 days treatment, CellTiter-Glo

Row | Compound | IC50 [1, 3] | EC50 [2] | IC50 [1] | Ki (Son of Sevenless (SOS))
1 | Cc1cc(-c2c(C)c(C)cc3c2nc(N2CCNCC2)n3Cc2ccc(F)c(Cl)c2)n(C)n1 [Example 286, 1-(3-chloro-4-fluorobenzyl)-4-(1,3-dimethyl-1H-pyrazol-5-yl)-5,6-dimethyl-2-(piperazin-1-yl)-1H-benzo[d]imidazole] | 1 to 5 µM | – | – | –
2 | Cc1cc(Cn2c(NCCN)nc3c(Cl)nccc32)ccc1F [Example 223, N^1-(4-chloro-1-(4-fluoro-3-methylbenzyl)-1H-imidazo[4,5-c]pyridin-2-yl)ethane-1,2-diamine] | > 20 µM | 5 to 30 µM | – | –
3 | Cc1cc(Cn2c(N3CCNCC3)nc3ccc(OC(C)C(F)(F)F)nc32)ccc1F (stereo not shown) [Example 258, 3-(4-fluoro-3-methylbenzyl)-2-(piperazin-1-yl)-5-((1,1,1-trifluoropropan-2-yl)oxy)-3H-imidazo[4,5-b]pyridine] | 1 to 5 µM | 5 to 30 µM | – | –
4 | Cc1cc(Cn2c(N3CCNCC3)nc3c(C4NCCc5c4[nH]c4ccccc54)cc(Cl)cc32)cc(C)c1F (stereo not shown) [Example 140, 1-(6-chloro-1-(4-fluoro-3,5-dimethylbenzyl)-2-(piperazin-1-yl)-1H-benzo[d]imidazol-4-yl)-2,3,4,9-tetrahydro-1H-pyrido[3,4-b]indole trifluoroacetate] | – | 1 to 5 µM | 1 to 5 µM | –
5 | CC(C)c1ccccc1-c1cccc2c1nc(N1CCNCC1)n2Cc1ccc(C(F)(F)F)cc1 [Example 95, 4-(2-isopropylphenyl)-2-(piperazin-1-yl)-1-(4-(trifluoromethyl)benzyl)-1H-benzo[d]imidazole] | < 1 µM | 1 to 5 µM | – | –
6 | Cc1cc(Cn2c(NCC3CNC3)nc3ccc(OCCN(C)C)nc32)ccc1F [Example 263, N-(azetidin-3-ylmethyl)-5-(2-(dimethylamino)ethoxy)-3-(4-fluoro-3-methylbenzyl)-3H-imidazo[4,5-b]pyridin-2-amine] | 5 to 20 µM | 30 to 100 µM | – | –
7 | Fc1ccc(Cn2c(N3CCNCC3)nc3c(-c4ccc(C(F)(F)F)cc4)cccc32)cc1Cl [Example 87, 1-(3-chloro-4-fluorobenzyl)-2-(piperazin-1-yl)-4-(4-(trifluoromethyl)phenyl)-1H-benzo[d]imidazole] | 5 to 20 µM | 5 to 30 µM | – | –
8 | Cc1cc(Cn2c(N3CC(CN)C3)nc3ccc(OCCN(C)C)nc32)ccc1F [Example 262, 2-((2-(3-(aminomethyl)azetidin-1-yl)-3-(4-fluoro-3-methylbenzyl)-3H-imidazo[4,5-b]pyridin-5-yl)oxy)-N,N-dimethylethan-1-amine] | 5 to 20 µM | 30 to 100 µM | – | –
9 | Cc1cc(Cn2c(N3CCCC(N)C3)nc3ccc(OC(C)C(F)(F)F)nc32)ccc1F (stereo not shown) [Example 261, 1-(3-(4-fluoro-3-methylbenzyl)-5-((1,1,1-trifluoroprpan-2-yl)oxy)-3H-imidazo[4,5-b]pyridin-2-yl)piperidin-3-amine] | < 1 µM | 30 to 100 µM | – | –
10 | COc1ccc(-c2cccc3c2nc(N2CCNCC2)n3Cc2ccc(C(F)(F)F)cc2)cc1OC [Example 91, 4-(3,4-dimethoxyphenyl)-2-(piperazin-1-yl)-1-(4-(trifluoromethyl)benzyl)-1H-benzo[d]imidazole] | 1 to 5 µM | 5 to 30 µM | – | –
11 | CC(C)c1ccccc1-c1cccc2c1nc(N1CCNCC1)n2Cc1cc(F)cc(F)c1 [Example 97, 1-(3,5-difluorobenzyl)-4-(2-isopropylphenyl)-2-(piperazin-1-yl)-1H-benzo[d]imidazole] | < 1 µM | 1 to 5 µM | – | –
12 | Cn1nccc1-c1cccc2c1nc(N1CCNCC1)n2Cc1ccc(F)c(Cl)c1 [Example 86, 1-(3-chloro-4-fluorobenzyl)-4-(1-methyl-1H-pyrazol-5-yl)-2-(piperazin-1-yl)-1H-benzo[d]imidazole trifluoroacetate] | – | 1 to 5 µM | 5 to 20 µM | –
13 | Fc1ccc(Cn2c(N3CCNCC3)nc3c(-c4ccccc4Cl)cccc32)cc1Cl [Example 84, 1-(3-chloro-4-fluorobenzyl)-4-(2-chlorophenyl)-2-(piperazin-1-yl)-1H-benzo[d]imidazole trifluoroacetate] | – | 1 to 5 µM | 1 to 5 µM | –
14 | Cc1nn(C)c(C)c1-c1cccc2c1nc(N1CCNCC1)n2Cc1ccc(F)c(Cl)c1 [Example 85, 1-(3-chloro-4-fluorobenzyl)-2-(piperazin-1-yl)-4-(1,3,5-trimethyl-1H-pyrazol-4-yl)-1H-benzo[d]imidazole trifluoroacetate] | – | 1 to 5 µM | 5 to 20 µM | –
15 | Nc1ccc(-c2cccc3c2nc(N2CCNCC2)n3Cc2ccc(C(F)(F)F)cc2)cc1 [Example 92, 4-(2-(piperazin-1-yl)-1-(4-(trifluoromethyl)benzyl)-1H-benzo[d]imidazol-4-yl)aniline] | 1 to 5 µM | 1 to 5 µM | – | –
16 | Cc1cc2c(nc(N3CCNCC3)n2Cc2ccc(F)c(Cl)c2)c(-c2ccnn2-c2ccc(C(C)C)cc2)c1C [Example 173, 1-(3-chloro-4-fluorobenzyl)-4-(1-(4-isopropylphenyl)-1H-pyrazol-5-yl)-5,6-dimethyl-2-(piperazin-1-yl)-1H-benzo[d]imidazole trifluoroacetate] | – | 5 to 30 µM | – | > 5 µM
17 | Cc1cc2nc(N3CCC(N)CC3)n(Cc3ccc(F)c(Cl)c3)c2cc1C [Example 294, 1-(1-(3-chloro-4-fluorobenzyl)-5,6-dimethyl-1-benzo[d]imidazol-2-yl)piperidin-4-amine] | – | 5 to 30 µM | – | > 5 µM
18 | CCc1cc(Cn2c(NCCN)nc3c(-c4c(C)nn(C)c4C)c(C)c(C)cc32)ccc1Cl [Example 115, N^1-(1-(4-chloro-3-ethylbenzyl)-5,6-dimethyl-4-(1,3,5-trimethyl-1H-pyrazol-4-yl)-1H-benzo[d]imidazol-2-yl)ethane-1,2-diamine trifluoroacetate] | – | 5 to 30 µM | – | > 5 µM
19 | Cc1cc2c(nc(N3CCNCC3)n2Cc2ccc(F)c(C)c2)c(CN2CCCCC2)n1 [Example 235, 1-(4-fluoro-3-methylbenzyl)-6-methyl-2-(piperazin-1-yl)-4-(piperidin-1-ylmethyl)-1H-imidazo[4,5-c]pyridine] | – | 30 to 100 µM | – | > 5 µM
20 | Fc1ccc(Cn2c(N3CCNCC3)nc3ccc(C4CC4)cc32)cc1Cl [Example 62, 1-(3-chloro-4-fluorobenzyl)-6-cyclopropyl-2-(piperazin-1-yl)-1H-benzo[d]imidazole trifluoroacetate] | – | 5 to 30 µM | – | > 5 µM
21 | Cc1cc(NCCN2CCOCC2)c2nc(N3CCNCC3)n(Cc3cc(C)c(F)c(C)c3)c2c1 [Example 193, 1-(4-fluoro-3,5-dimethylbenzyl)-6-methyl-N-(2-morpholinoethyl)-2-(piperazin-1-yl)-1H-benzo[d]imidazol-4-amine trifluoroacetate] | – | 1 to 5 µM | – | 0.5 to 1 µM
22 | Cc1cc2c(nc(N3CCNCC3)n2Cc2cc(C)c(F)c(C)c2)c(CCN)c1C [Example 102, 2-(1-(4-fluoro-3,5-dimethylbenzyl)-5,6-dimethyl-2-(piperazin-1-yl)-1H-benzo[d]imidazol-4-yl)ethan-1-amine trifluoroacetate] | – | 1 to 5 µM | – | > 5 µM
23 | N[C@H](c1cc(Cl)cc2c1nc(N1CCNCC1)n2Cc1ccc(F)c(Cl)c1)C1CC1 [Example 167, (S)-(6-chloro-1-(3-chloro-4-fluorobenzyl)-2-(piperazin-1-yl)-1H-benzo[d]imidazol-4-yl)(cyclopropyl)methanamine trifluoroacetate] | – | < 1 µM | – | 0.5 to 1 µM
24 | Cc1cc(OCCN)c2nc(NCCN)n(Cc3cc(C)c(F)c(C)c3)c2c1 [Example 320, N^1-(4-(2-aminoethoxy)-1-(4-fluoro-3,5-dimethylbenzyl)-6-methyl-1H-benzo[d]imidazol-2-yl)ethane-1,2-diamine] | – | < 1 µM | – | 0.5 to 1 µM
25 | Cc1cc(Cn2c(N3CCNCC3)nc3c(N(C)C)cc(Cl)cc32)cc(C)c1F [Example 296, 6-chloro-1-(4-fluoro-3,5-dimethylbenzyl)-N,N-dimethyl-2-(piperazin-1-yl)-1H-benzo[d]imidazol-4-amine] | – | 1 to 5 µM | – | < 0.5 µM
